Source: PMC9271048, “Probing strigolactone perception mechanisms with rationally designed small-molecule agonists stimulating germination of root parasitic weeds” (Nature Communications, 2022)
Like-named read-outs stand apart in the source and are kept apart here.

Legend:
[1] = system: PaKAI2s (5 KAI2 protein homologs in P. aegyptiaca); assay: YLG-based competition assay on KAI2 protein homologs of P. aegyptiaca; type: biochemical, Phelipanche aegyptiaca; details: Supplementary Fig. 27
Summary of the method: (§1)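 Competition with fluorogenic substrate YLG ([…]) for hydrolysis by each HTL or KAI2 protein; fluorescence (Ex 480/Em 520 nm) recorded every 1 min for 30 min. Linear 8-min increase, background hydrolysis subtracted, used; IC50 from fitted relative inhibition versus concentration.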

[2] = system: ShHTLs (10 HTL proteins in S. hermonthica); assay: YLG-based competition assay on HTL proteins of S. hermonthica; type: biochemical, Striga hermonthica; details: Supplementary Fig. 27
Summary of the method: as §1

[3] = Chemical reactivity analysis (HPLC, methanol/PBS pH 7.4); type: physicochemical
Summary of the method: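 Samples were diluted into 10 mM PBS pH 7.4 with methanol and kept at 26 ± 1 °C. The remaining compound was followed by C18 HPLC (CH3CN/H2O 50:50 with 0.1% HCO2H, 1 mL/min). Half-lives were derived from the percentage remaining, calculated from peak areas.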

ShHTL7 = ShHTL7 (Striga hermonthica, UniProt A0A0M3PNA2); assay: biochemical; type: binding
Summary of the method: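 Surface plasmon resonance was run at 25 °C on ShHTL7 immobilized by amine coupling, using phosphate-buffered saline with 0.05% P20 and 0.5% DMSO. Each injection had 1 min association and 1 min dissociation, with a 50 μM screen followed by concentration series. KD was derived by kinetic analysis or steady-state affinity.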

Chain of ShHTL7 (A0A0M3PNA2 entry or part of it): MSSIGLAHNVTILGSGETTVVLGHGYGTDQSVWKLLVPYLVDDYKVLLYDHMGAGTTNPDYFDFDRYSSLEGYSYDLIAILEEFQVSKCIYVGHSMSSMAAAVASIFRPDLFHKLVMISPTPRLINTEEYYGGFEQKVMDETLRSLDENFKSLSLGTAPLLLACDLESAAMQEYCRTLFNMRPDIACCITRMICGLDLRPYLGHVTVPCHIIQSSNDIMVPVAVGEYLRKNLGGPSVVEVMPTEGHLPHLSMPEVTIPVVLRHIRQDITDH

SMILES: CC1=C[C@H](O/C=C2/C(=O)O[C@@H]3c4ccccc4C[C@H]23)OC1=O (racemic) [rac-GR24, reference compound]
- IC50 ([1]; KAI2C, YLG competition, read-out: IC50, replicate 1): 7.31 µM
- IC50 ([1]; KAI2C, YLG competition, read-out: IC50, replicate 2): 5.69 µM
- IC50 ([1]; KAI2C, YLG competition, read-out: IC50, replicate 3): 6.56 µM
- IC50 ([1]; KAI2C, average of 3 replicates, read-out: IC50, average): 6.52 µM
- IC50 ([1]; KAI2d1, YLG competition, read-out: IC50, replicate 1): 1.78 µM
- IC50 ([1]; KAI2d1, YLG competition, read-out: IC50, replicate 2): 2.83 µM
- IC50 ([1]; KAI2d1, YLG competition, read-out: IC50, replicate 3): 2.39 µM
- IC50 ([1]; KAI2d1, average of 3 replicates, read-out: IC50, average): 2.33 µM
- IC50 ([1]; KAI2d2, YLG competition, read-out: IC50, replicate 1): 5.14 µM
- IC50 ([1]; KAI2d2, YLG competition, read-out: IC50, replicate 2): 2.89 µM
- IC50 ([1]; KAI2d2, YLG competition, read-out: IC50, replicate 3): 3.46 µM
- IC50 ([1]; KAI2d2, average of 3 replicates, read-out: IC50, average): 3.83 µM
- IC50 ([1]; KAI2d3, YLG competition, read-out: IC50, replicate 1): 2.27 µM
- IC50 ([1]; KAI2d3, YLG competition, read-out: IC50, replicate 2): 2.04 µM
- IC50 ([1]; KAI2d3, YLG competition, read-out: IC50, replicate 3): 1.55 µM
- IC50 ([1]; KAI2d3, average of 3 replicates, read-out: IC50, average): 1.95 µM
- IC50 ([1]; KAI2d4, YLG competition, read-out: IC50, replicate 1): 6.41 µM
- IC50 ([1]; KAI2d4, YLG competition, read-out: IC50, replicate 2): 5.83 µM
- IC50 ([1]; KAI2d4, YLG competition, read-out: IC50, replicate 3): 7.25 µM
- IC50 ([1]; KAI2d4, average of 3 replicates, read-out: IC50, average): 6.5 µM
- IC50 ([2]; ShHTL2, YLG competition, read-out: IC50, replicate 1): 26.2 µM
- IC50 ([2]; ShHTL2, YLG competition, read-out: IC50, replicate 2): 25.2 µM
- IC50 ([2]; ShHTL2, YLG competition, read-out: IC50, replicate 3): 25.5 µM
- IC50 ([2]; ShHTL2, average of 3 replicates, read-out: IC50, average): 25.7 µM
- IC50 ([2]; ShHTL3, YLG competition, read-out: IC50, replicate 1): 9.4 µM
- IC50 ([2]; ShHTL3, YLG competition, read-out: IC50, replicate 2): 7.11 µM
- IC50 ([2]; ShHTL3, YLG competition, read-out: IC50, replicate 3): 8.7 µM
- IC50 ([2]; ShHTL3, average of 3 replicates, read-out: IC50, average): 8.4 µM
- IC50 ([2]; ShHTL4, YLG competition, read-out: IC50, replicate 1): 0.239 µM
- IC50 ([2]; ShHTL4, YLG competition, read-out: IC50, replicate 2): 0.239 µM
- IC50 ([2]; ShHTL4, YLG competition, read-out: IC50, replicate 3): 0.28 µM
- IC50 ([2]; ShHTL4, average of 3 replicates, read-out: IC50, average): 0.253 µM
- IC50 ([2]; ShHTL5, YLG competition, read-out: IC50, replicate 1): 5.89 µM
- IC50 ([2]; ShHTL5, YLG competition, read-out: IC50, replicate 2): 6.85 µM
- IC50 ([2]; ShHTL5, YLG competition, read-out: IC50, replicate 3): 6.74 µM
- IC50 ([2]; ShHTL5, average of 3 replicates, read-out: IC50, average): 6.49 µM
- IC50 ([2]; ShHTL6, YLG competition, read-out: IC50, replicate 1): 2.28 µM
- IC50 ([2]; ShHTL6, YLG competition, read-out: IC50, replicate 2): 1.87 µM
- IC50 ([2]; ShHTL6, YLG competition, read-out: IC50, replicate 3): 2.23 µM
- IC50 ([2]; ShHTL6, average of 3 replicates, read-out: IC50, average): 2.13 µM
- IC50 ([2]; ShHTL8, YLG competition, read-out: IC50, replicate 1): 6.15 µM
- IC50 ([2]; ShHTL8, YLG competition, read-out: IC50, replicate 2): 6.78 µM
- IC50 ([2]; ShHTL8, YLG competition, read-out: IC50, replicate 3): 4.51 µM
- IC50 ([2]; ShHTL8, average of 3 replicates, read-out: IC50, average): 5.81 µM
- IC50 ([2]; ShHTL9, YLG competition, read-out: IC50, replicate 1): 4.91 µM
- IC50 ([2]; ShHTL9, YLG competition, read-out: IC50, replicate 2): 4.06 µM
- IC50 ([2]; ShHTL9, YLG competition, read-out: IC50, replicate 3): 5.17 µM
- IC50 ([2]; ShHTL9, average of 3 replicates, read-out: IC50, average): 4.71 µM
- IC50 ([2]; ShHTL10, YLG competition, read-out: IC50, replicate 1): 4.93 µM
- IC50 ([2]; ShHTL10, YLG competition, read-out: IC50, replicate 2): 6.56 µM
- IC50 ([2]; ShHTL10, YLG competition, read-out: IC50, replicate 3): 5.51 µM
- IC50 ([2]; ShHTL10, average of 3 replicates, read-out: IC50, average): 5.67 µM
- IC50 ([2]; ShHTL11, YLG competition, read-out: IC50, replicate 1): 3.27 µM
- IC50 ([2]; ShHTL11, YLG competition, read-out: IC50, replicate 2): 3.14 µM
- IC50 ([2]; ShHTL11, YLG competition, read-out: IC50, replicate 3): 3.16 µM
- IC50 ([2]; ShHTL11, average of 3 replicates, read-out: IC50, average): 3.19 µM
- half-life time (t1/2) ([3]; 1:3 methanol and PBS (10 mM) pH 7.4, HPLC): 3.0 h
- half-life time (t1/2), source data average ([3]; Supplementary Fig. 10 source data, methanol/PBS pH 7.4, 26 °C): 3.031 h
- Kd (ShHTL7; Supplementary Table 7, binding affinities between ShHTL7 and agonists by SPR, read-out: KD/μM): 0.93 ± 0.17 µM
- Kd (ShHTL7; recombinant ShHTL7 immobilized on CM5 chip, 25 °C, read-out: KD (SPR)): ~0.93 µM
